Read-outs that look alike come from different tables or passages of the source. Where a SMILES comes first, the peptide text is derived from it. Bridges are numbered along the chain shown (N, C = ends). [ ]: non-standard residue; d: D form. Phe(3-Cl) = N[C@@H](Cc1cccc(Cl)c1)C(=O)O; hCys = N[C@@H](CCS)C(=O)O; Nle = CCCC[C@H](N)C(=O)O
Columns and labels:
[1] = Cell penetration or infiltration of the polypeptides; assay type: cell-based
Description: In this example, the sequence was modified based on SEQ ID NO.: 1. Some preferred modification based on the tested results included: adding a disulfide linkage within the peptide, or adding a cell-penetrating element.

[2] = Stability in plasma (percentage of residual peptides); conditions: for Stability* (>24 h): plasma
Procedure: For the YAP inhibitory polypeptides modified in above (a) and (b), the IC50 values for TEAD binding and the stability in plasma were measured.

[3] = tested on: hepatoma cell line HCCLM3; assay type: cell-based; conditions: Table 8; at a concentration of 1% in cell cultivating for 72 h; unit inferred; read-out: IC50 HCCLM3
Procedure: (§1) The hepatoma cell line BEL7404 (purchased from The Chinese Academy of Sciences cell bank) was a cell line with high expression of YAP protein; HCCLM3 (purchased from The Chinese Academy of Sciences cell bank) was a cell line with low expression of YAP protein. The hepatoma cell lines (BEL7404 or HCCLM3) were inoculated into a 96-well plate at the concentration of 2000 cells/well, and incubated overnight in RPMI1640 containing 1% bovine serum at 37° C. The hepatoma cell lines were treated with polypeptides having different concentrations at 37° C. for 72 h.
(§2) Moreover, IC50 values of the cells in 1.1 were determined using CCK-8 kit.
(§3) The polypeptide represented by SEQ ID NO.:1 was further modified. The IC50 values of the polypeptides at a concentration of 1% in cell cultivating for 72 h were measured.

[4] = tested on: hepatoma cell line BEL7404; assay type: cell-based; conditions: Table 8; at a concentration of 1% in cell cultivating for 72 h; unit inferred; read-out: IC50 BEL7404
Procedure: as §1, §2, §3

[5] = Table 2, percentage of residual peptides after >24 h

IC50 [3] [µM] | IC50 [4] [µM] | SMILES | other results
< 1000 | 60.2 ± 15.2 | CCCC[C@@H]1NC(=O)[C@H](CCCCN)NC(=O)[C@H](CCCCN)NC(=O)[C@H](CC(C)C)NC(=O)[C@@H](NC(=O)[C@H](Cc2cccc(Cl)c2)NC(=O)[C@@H]2CCCN2C(=O)[C@@H](N)C(C)C)CCSSC[C@@H](C(=O)N[C@@H](CCCCN)C(=O)N2CCC[C@H]2C(=O)N2CCC[C@H]2C(=O)N[C@@H](CCCNC(=N)N)C(=O)N[C@@H](CCCNC(=N)N)C(=O)N[C@@H](CCSC)C(=O)N[C@@H](CCCCN)C(=O)N[C@@H](Cc2c[nH]c3ccccc23)C(=O)N[C@@H](CCCCN)C(=O)N[C@@H](CCCCN)C(=O)O)NC(=O)[C@H](Cc2ccccc2)NC(=O)[C@H](CO)NC(=O)[C@H](CC(=O)O)NC(=O)[C@@H]2CCCN2C1=O [compound 27] (H-VP[Phe(3-Cl)][hCys]LKK[Nle]PDSFCKPPRRMKWKK-OH; disulfide 4-13) | –
198 ± 19.6 | 55.4 ± 6.3 | CCCC[C@@H]1NC(=O)[C@@H](NC(=O)[C@H](Cc2cccc(Cl)c2)NC(=O)[C@@H]2CCCN2C(=O)[C@@H](N)C(C)C)CCSSC[C@@H](C(=O)N[C@@H](CCCCN)C(=O)N2CCC[C@H]2C(=O)N2CCC[C@H]2C(=O)N[C@@H](CCCNC(=N)N)C(=O)N[C@@H](CCCNC(=N)N)C(=O)N[C@@H](CCSC)C(=O)N[C@@H](CCCCN)C(=O)N[C@@H](Cc2c[nH]c3ccccc23)C(=O)N[C@@H](CCCCN)C(=O)N[C@@H](CCCCN)C(=O)O)NC(=O)[C@H](Cc2ccccc2)NC(=O)[C@H](CO)NC(=O)[C@H](CC(=O)O)NC(=O)[C@@H]2CCCN2C(=O)[C@H](CCCC)NC(=O)[C@H](CCCCN)NC(=O)[C@H](CCCCN)NC1=O [compound 28] (H-VP[Phe(3-Cl)][hCys][Nle]KK[Nle]PDSFCKPPRRMKWKK-OH; disulfide 4-13) | –
254 ± 12.3 | 65.6 ± 8.9 | CCCC[C@@H]1NC(=O)[C@H](CCCCN)NC(=O)[C@H](CCCCN)NC(=O)[C@H](CC(C)C)NC(=O)[C@@H](NC(=O)[C@H](Cc2cccc(Cl)c2)NC(=O)[C@@H]2CCCN2C(=O)[C@@H](N)C(C)C)CCSSC[C@@H](C(=O)N[C@@H](CCCCN)C(=O)N2CCC[C@H]2C(=O)N2CCC[C@H]2C(=O)N[C@@H](CCCNC(=N)N)C(=O)N[C@@H](CCCNC(=N)N)C(=O)N[C@@H](CCSC)C(=O)N[C@@H](CCCCN)C(=O)N[C@@H](Cc2c[nH]c3ccccc23)C(=O)N[C@@H](CCCCN)C(=O)N[C@@H](CCCCN)C(=O)O)NC(=O)[C@H](Cc2ccccc2)NC(=O)[C@H](CO)NC(=O)[C@H](CCC(=O)O)NC(=O)[C@@H]2CCCN2C1=O [compound 29] (H-VP[Phe(3-Cl)][hCys]LKK[Nle]PESFCKPPRRMKWKK-OH; disulfide 4-13) | –
142 ± 9.4 | 28.2 ± 1.8 | CCCC[C@@H]1NC(=O)[C@H](CCCCN)NC(=O)[C@H](CCCCN)NC(=O)[C@H](CC(C)C)NC(=O)[C@@H](NC(=O)[C@H](Cc2cccc(Cl)c2)NC(=O)[C@@H]2CCCN2C(=O)[C@@H](N)C(C)C)CSSCC[C@@H](C(=O)N[C@@H](CCCCN)C(=O)N2CCC[C@H]2C(=O)N2CCC[C@H]2C(=O)N[C@@H](CCCNC(=N)N)C(=O)N[C@@H](CCCNC(=N)N)C(=O)N[C@@H](CCSC)C(=O)N[C@@H](CCCCN)C(=O)N[C@@H](Cc2c[nH]c3ccccc23)C(=O)N[C@@H](CCCCN)C(=O)N[C@@H](CCCCN)C(=O)O)NC(=O)[C@H](Cc2ccccc2)NC(=O)[C@H](CO)NC(=O)[C@H](C)NC(=O)[C@@H]2CCCN2C1=O [compound 30] (H-VP[Phe(3-Cl)]CLKK[Nle]PASF[hCys]KPPRRMKWKK-OH; disulfide 4-13) | –
107 ± 23.2 | 16.2 ± 1.9 | CCCC[C@@H]1NC(=O)[C@H](CCCCN)NC(=O)[C@H](CCCCN)NC(=O)[C@H](CC(C)C)NC(=O)[C@H](Cc2cccc(Cl)c2)NC(=O)[C@@H](NC(=O)[C@@H]2CCCN2C(=O)[C@@H](N)C(C)C)CCSSC[C@@H](C(=O)N[C@@H](Cc2ccccc2)C(=O)N[C@@H](CCCCN)C(=O)N2CCC[C@H]2C(=O)N2CCC[C@H]2C(=O)N[C@@H](CCCNC(=N)N)C(=O)N[C@@H](CCCNC(=N)N)C(=O)N[C@@H](CCSC)C(=O)N[C@@H](CCCCN)C(=O)N[C@@H](Cc2c[nH]c3ccccc23)C(=O)N[C@@H](CCCCN)C(=O)N[C@@H](CCCCN)C(=O)O)NC(=O)[C@H](CO)NC(=O)[C@H](C)NC(=O)[C@@H]2CCCN2C1=O [compound 31] (H-VP[hCys][Phe(3-Cl)]LKK[Nle]PASCFKPPRRMKWKK-OH; disulfide 3-12) | –

More lines, now with the values behind:

SMILES | IC50 [3] [µM] | IC50 [4] [µM] | other results
CSCC[C@H](NC(=O)[C@@H]1CCCN1C(=O)[C@@H](N)C(C)C)C(=O)N[C@H]1CCSSC[C@@H](C(=O)N[C@@H](CCCCN)C(=O)N2CCC[C@H]2C(=O)N2CCC[C@H]2C(=O)N[C@@H](CCC(=O)O)C(=O)O)NC(=O)[C@H](Cc2ccccc2)NC(=O)[C@H](CO)NC(=O)[C@H](CC(=O)O)NC(=O)[C@@H]2CCCN2C(=O)[C@H](CC(C)C)NC(=O)[C@H](CCCCN)NC(=O)[C@H](CCCNC(=N)N)NC(=O)[C@H](CC(C)C)NC1=O [Peptide 2] | – | – | Percentage of Cell penetration or infiltration (%) ([1]; Table 2, penetration of the peptide with RRMKWKK taken as 100%): 8%; Stability* (>24 h) [2, 5]: 13%; Stability* (>24 h) ([2]; Table 3, >24 h): 7%
CSCC[C@H](NC(=O)[C@@H]1CCCN1C(=O)[C@@H](N)C(C)C)C(=O)N[C@@H](CCCNC(=N)N)C(=O)N[C@@H](CC(C)C)C(=O)N[C@@H](CCCNC(=N)N)C(=O)N[C@@H](CCCCN)C(=O)N[C@@H](CC(C)C)C(=O)N1CCC[C@H]1C(=O)N[C@@H](CC(=O)O)C(=O)N[C@@H](CO)C(=O)N[C@@H](Cc1ccccc1)C(=O)N[C@@H](Cc1ccccc1)C(=O)N[C@@H](CCCCN)C(=O)N1CCC[C@H]1C(=O)N1CCC[C@H]1C(=O)N[C@@H](CCC(=O)O)C(=O)O [SEQ ID NO.: 1] | – | – | Percentage of Cell penetration or infiltration (%) [1]: <10%; uptake by cells [1]: difficult for effective uptake by cells; Stability* (>24 h) [2, 5]: 0%; stability ([2]; in words): low stability
CCCC[C@@H]1NC(=O)[C@@H](NC(=O)[C@H](CCCCN)NC(=O)[C@H](CCCCN)NC(=O)[C@H](CC(C)C)NC(=O)[C@H](Cc2cccc(Cl)c2)NC(=O)[C@@H]2CCCN2C(=O)[C@@H](N)C(C)C)CCSSC[C@@H](C(=O)N[C@@H](CCCNC(=N)N)C(=O)N[C@@H](CCCNC(=N)N)C(=O)N[C@@H](CCSC)C(=O)N[C@@H](CCCCN)C(=O)N[C@@H](Cc2c[nH]c3ccccc23)C(=O)N[C@@H](CCCCN)C(=O)N[C@@H](CCCCN)C(=O)O)NC(=O)[C@@H]2CCCN2C(=O)[C@@H]2CCCN2C(=O)[C@H](CCCCN)NC(=O)[C@H](Cc2ccccc2)NC(=O)[C@H](CO)NC(=O)[C@H](C)NC(=O)[C@@H]2CCCN2C1=O [compound 33] (H-VP[Phe(3-Cl)]LKK[hCys][Nle]PASFKPPCRRMKWKK-OH; disulfide 7-16) | 81.1 ± 13.1 | 10.8 ± 2.1 | –

Reference: patent publication US10526385B2, “YAP protein inhibiting polypeptide and application thereof” (BAO KANG BIOMEDICAL HEALTHCARE INC, priority 2013, dated 2020)
